Data taken from PubChem BioAssay AID179 (DTP/NCI, 2004).
The source made the active and inactive calls.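 Rule for the calls: active = compounds giving half or more protection of infected cells from virus-caused growth loss, again on retest; inactive = the rest.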

System: CEM cells HIV-1 protection, formazan growth assay
Assay: NCI AIDS Antiviral Assay
Conditions: for IC50: measured here: growth of uninfected CEM cells
Summary of the method: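 Screen of anti-HIV-1 activity in human CEM cells using a formazan-based growth measurement at five drug concentrations. Hits with 50% or greater protection were repeated, and confirmation required reproducible complete protection.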

| Structure (SMILES) | EC50 | IC50 | outcome |
| --- | --- | --- | --- |
| CCCN(C)C(=O)COc1cc2c(O)c3c(O)c(C)c4c(c13)C(=O)C(C)(O/C=C/C(OC)C(C)C(OC(C)=O)C(C)C(O)C(C)C(O)C(C)/C=C/C=C(\C)C(=O)N2)O4 (centres undefined) | > 200 µM | 18.6 µM |  |
| NC(=S)N/N=C/C(O[C@@H](/C=N/NC(N)=S)CO)n1cnc2c(N)ncnc21 (some centres undefined) | > 437 µM | 89.1 µM |  |
| CCc1nc(N)c2nc(-c3cccs3)oc2n1 | > 200 µM | 182 µM |  |
| C=CCNC(=S)/N=C/C(C(=O)Nc1ccccc1C)=C(\C)O | > 200 µM | > 200 µM |  |
| COc1cc2c(cc1-c1coc3cc(OCC=C(C)C)ccc3c1=O)OCO2 | > 200 µM | 7.08 µM |  |
| CN1CCN(CC(=O)Nc2cccc3ccccc23)CC1 | > 200 µM | > 200 µM |  |
| CCOC(=O)c1cc2c(nc1N)C(=O)CCC2 | > 200 µM | 112 µM |  |
| Nc1c2ccccc2nc2ccc3c(=O)cc(-c4ccccc4)oc3c12 | > 20 µM | 0.912 µM |  |
| N=C(/C=C/c1ccc(-c2cn3cc(/C=C/C(=N)N4CCCC4)ccc3n2)cc1)N1CCCC1 | 25.1 µM | 64.6 µM |  |
| CN1C/C(=C\c2ccc(N(C)C)cc2)C(=O)/C(=C/c2ccc(N(C)C)cc2)C1 | > 100 µM | > 100 µM |  |
| COC1/C=C\OC2(C)Oc3c(C)c(O)c4c(O)c(c(/C=N\NC(=O)CC(=O)N/N=C/c5c6c(O)c7c(O)c(C)c8c(c7c5O)C(=O)C(C)(O/C=C/C(OC)C(C)C(OC(C)=O)C(C)C(O)C(C)C(O)C(C)/C=C/C=C(C)C(=O)N6)O8)c(O)c4c3C2=O)NC(=O)/C(C)=C\C=C/C(C)C(O)C(C)C(O)C(C)C(OC(C)=O)C1C (centres undefined) | > 115 µM | 87.1 µM |  |
| Cc1ccc([N+](=O)[O-])c2c(NCCNC(=O)Cn3ccnc3[N+](=O)[O-])ccnc12 | > 100 µM | 79.4 µM |  |
| CCc1ccc2oc(-c3cc(O)c(-c4nc5cc(CC)ccc5o4)cc3O)nc2c1 | > 200 µM | > 200 µM |  |
| CC(=O)Nc1sc([N+](=O)[O-])cc1S(=O)(=O)c1ccc(Cl)cc1 | > 200 µM | 1.48 µM |  |
| CCCNC(=O)C(C)(Cl)C(=O)c1ccccc1O (centres undefined) | > 479 µM | 209 µM |  |
| O=C(c1nc2ccc(Cl)cc2[nH]c1=O)C(O)c1ccco1 (centres undefined) | > 8.13 µM | 2.57 µM |  |
| O=C(O)C1C(C(=O)O)C2C3C4C1C1C2C3C41 (centres undefined) |  |  | inactive |
| O=[N+]([O-])c1ccc(NSc2ccccc2)cc1 | > 200 µM | 9.33 µM |  |
| O=C(O)c1ccccc1/C=C1\Cc2cc3c(cc2C1=O)CCC3 | > 200 µM | > 200 µM |  |
| CC1(C)OC(=O)C(c2cccs2)C(=O)O1 | > 44.7 µM | > 44.7 µM |  |
| O=C1CSC(c2ccccc2O)N1c1ccc(-n2c(-c3ccccc3)nc3ccccc3c2=O)cc1 (centres undefined) | > 200 µM | 11.2 µM |  |
| CC12CCC(C/C1=N\NC(N)=O)C2(C)C (centres undefined) | > 200 µM | > 200 µM |  |

| Structure (SMILES) | EC50 | IC50 | outcome |
| --- | --- | --- | --- |
| COc1cc2c(cc1C)C1=C(C)C(=O)OC1[C@@H](O)[C@@H]2C (some centres undefined) | > 661 µM | 245 µM |  |
| COC(=O)C1C(OC(=O)C(Cl)(c2ccccc2)c2ccccc2)CC2CCC1N2C (centres undefined) | > 200 µM | > 200 µM |  |
| O=C1COc2cccnc2N1CCCCO | > 200 µM | > 200 µM |  |
| CCOC(=O)c1nc2ccc(C(F)(F)F)cc2nc1NCc1ccc(OC)c(OC)c1 | > 200 µM | 85.1 µM |  |
| CCCCCCCCCCCCCCCCOCC(COC1OC(CS(=O)(=O)O)C(O)C(O)C1O)OCCCCCCCCCCCCCCCC (centres undefined) | 100 µM | 123 µM |  |
| O=S1c2ccccc2N=C(c2cccc3ccccc23)CC1c1cccc2ccccc12 (centres undefined) | > 60.3 µM | > 60.3 µM |  |
| CN(C)c1ccc(N=C2C=CC(=O)c3ccccc32)cc1 | > 20 µM | 1.23 µM |  |
| [O-]c1on[n+](-c2ccccc2)c1-c1ccccc1 | > 151 µM | 74.1 µM |  |
| O=c1c2ccccc2[se]n1-c1ccccn1 | 7.76 µM | 16.2 µM |  |
| C/C(CC(=O)Nc1cc(C)ccc1C)=N/N=C(N)N | > 52.5 µM | > 52.5 µM |  |
| Cc1nsc2cc(Cl)n(C)c(=O)c12 | > 6.76 µM | > 6.76 µM |  |
| O=C(O)c1cccc(/C=C/c2ccc(N=Nc3c(O)cc(O)cc3C(=O)O)cc2C(=O)O)c1 | > 200 µM | 158 µM |  |
| CCCc1cc(=O)oc2c3c(c4c(c12)OC(C)(C)C=C4)O[C@H](C)[C@@H](C)[C@@H]3O | 4.68 µM | 16.2 µM |  |
| O=c1[nH]c(O)c(/C=N/C(=S)Nc2ccccc2)c(=O)[nH]1 |  |  | inactive |
| CCCCCCCCCCCC(=O)OCCOCCOCCOCCOCCOC(=O)CCCCCCCCCCC |  |  | inactive |
| COC(=O)C1C(c2ccccc2)=N[C@@H](c2ccccc2)[C@H]1C(=O)OC (some centres undefined) | > 11.2 µM | > 11.2 µM |  |
| CC1(C)OC(COCCOCCCCCO)C(COCCOCCCCCO)O1 (centres undefined) |  |  | inactive |
| CSC(=S)N(C)NC(=O)c1cccc(C(=O)NN(C)C(=S)SC)n1 | > 200 µM | > 200 µM |  |
| N#C/C1=C(\C#N)N=Cc2ccccc2NCCNc2ccccc2C=N1 | > 200 µM | > 200 µM |  |
| Brc1ccc(C[N+]23CCN(CC2)CC3)cc1 | > 692 µM | > 692 µM |  |
| COC1Sc2ccccc2C(=O)N2CCCC12 (centres undefined) | > 200 µM | > 200 µM |  |
| C/C(=N\NC(=S)N(C)C)c1ccccn1 | > 2.24 µM | 0.0138 µM |  |

| Structure (SMILES) | EC50 | IC50 | outcome |
| --- | --- | --- | --- |
| CC(O)[C@@]1(c2ccccc2)CC2(CCN(C)CC2)O[C@H]1C (some centres undefined) | > 200 µM | > 200 µM |  |
| Cc1cccc(C2ON=C(c3ccccc3)N2C23CC4CC(CC(C4)C2)C3)c1 (centres undefined) | > 200 µM | 49 µM |  |
| O=c1oc2c(-c3c(O)c(=O)oc4ccccc34)cc(O)cc2s1 | > 209 µM | 97.7 µM |  |
| C/C(O)=C/c1nc2ccccc2[nH]1 | > 1450 µM | 1260 µM |  |
| Nc1nc2c(ncn2C(CCO)SCCO)c(=O)[nH]1 (centres undefined) | > 871 µM | > 871 µM |  |
| COc1cc2cnc3c4cc(OC)c(OC(C)C)cc4ccc3c2cc1OC | > 5.37 µM | > 5.37 µM |  |
| CC(C)(C)OC(=O)N1CCCC1C(=O)NCCNc1ccc(NCCNC(=O)C2CCCN2C(=O)OC(C)(C)C)c2c1C(=O)c1ccccc1C2=O (centres undefined) | > 151 µM | 6.61 µM |  |
| CCc1ccc(/C(C#N)=C/c2cccc3ccccc23)cc1 | > 200 µM | 26.9 µM |  |
| CC(=O)O[C@H]1[C@@H](OC2CCCC2(c2ccccc2)c2ccccc2)O[N+]([O-])=C[C@@]12COCc1cc3c(cc12)OCO3 (some centres undefined) | > 200 µM | 11.7 µM |  |
| CN(C)CCNc1ccc(NCC[N+](C)(C)Cc2ccc([N+](=O)[O-])cc2)c2c1C(=O)c1c(O)ccc(O)c1C2=O | > 20 µM | 0.891 µM |  |
| S=P(c1ccccc1)(N1CCCCC1)N1CCCCC1 | > 43.7 µM | > 43.7 µM |  |
| CCOC(=O)C(=O)Nc1ccc(Cl)c(C(F)(F)F)c1 |  |  | inactive |
| Cc1ccc2c(c1)C/C(=C\c1ccccc1C(=O)O)C2=O | > 200 µM | 102 µM |  |
| CC1CC2C(=O)N(c3ccccc3)C(=O)C2c2c1c1ccccc1n2Cc1ccccc1 (centres undefined) |  |  | inactive |
| O=C(CCCl)NNC1=NCCCCN1 | > 200 µM | > 200 µM |  |
| COc1cc(C(c2ccc3c(c2)OCO3)N2C(=O)CCC2C(=O)O)cc(OC)c1OC (centres undefined) | > 200 µM | > 200 µM |  |
| Cc1ccc(N=Nc2c(C)c(C#N)c(=S)n(C3OC(CO)C(O)C(O)C3O)c2-c2ccccc2)cc1 (centres undefined) | > 200 µM | 18.6 µM |  |
| [N-]=[N+]=NC(=O)c1ccc(S(=O)(=O)c2ccc(F)cc2)cc1 |  |  | inactive |
| O=C(O)c1cc(Br)cc(SSc2cc(Br)cc(C(=O)O)c2O)c1O | 102 µM | 107 µM |  |
| Clc1ccc(OCC(COc2ccccc2)Oc2nc(-c3ccccc3)nc(-c3ccccc3)n2)cc1 (centres undefined) | > 3.89 µM | > 3.89 µM |  |
| CCCC(C)C(N)=Nc1ccc(Cl)c(Cl)c1 (centres undefined) | > 200 µM | 45.7 µM |  |
| CC#CCCCC1(C)CCNC1=S (centres undefined) | > 200 µM | > 200 µM |  |

| Structure (SMILES) | EC50 | IC50 | outcome |
| --- | --- | --- | --- |
| CCCCCCSC[C@H](OC(C)=O)[C@@H](OC(C)=O)[C@@H](OC(C)=O)[C@@H](COC(C)=O)OC(C)=O | > 200 µM | 53.7 µM |  |
| CC(C)(C)c1ccc2c(c1)OCc1n[nH]c(n1)COc1cc(C(C)(C)C)ccc1OCCOCCO2 | > 200 µM | 7.24 µM |  |
| CC(=O)OC[C@]1(O)CC[C@@]23CC1C[C@@H]2CCC1C(C)(C)CCC[C@@]13C (some centres undefined) | > 20.9 µM | > 20.9 µM |  |
| Nc1cc2cccc[n+]2c2cccc(Cl)c12 | > 200 µM | 4.47 µM |  |
| Cc1cc(Oc2cnc(=O)[nH]c2)cs1 | > 200 µM | > 200 µM |  |
| COc1ccccc1N/C(=C\C(=O)C(=O)NC12CC3CC(CC(C3)C1)C2)c1ccccc1 | > 200 µM | > 200 µM |  |
| CC(N)CNCC(C)N (centres undefined) | > 200 µM | > 200 µM |  |
| CCc1cc(=O)n(/C(C)=C/c2ccccc2)n1C | > 200 µM | > 200 µM |  |
| COc1cc2c(c(OC)c1OC)-c1ccc(OC)c(=O)cc1[C@@H](NC(C)=O)CC2 |  |  | inactive |
| O=c1[nH]n(CCc2ccccc2CCl)c2ccc([N+](=O)[O-])cc12 | > 200 µM | 50.1 µM |  |
| O=c1[nH]c(=O)n(C2OC(CO)C(O)C2O)c(NNc2ccccc2)c1NNc1ccccc1 (centres undefined) | 145 µM | > 200 µM |  |
| COc1cc2c(c(OC)c1OC)CCNC2C1=C(O)COC1=O (centres undefined) |  |  | inactive |
| CN(C)N1CCOC1=O | > 200 µM | > 200 µM |  |
| CC(SSC(C)N1C(=O)c2ccccc2C1=O)N1C(=O)c2ccccc2C1=O (centres undefined) | > 100 µM | > 100 µM |  |
| O=[N+]([O-])/C=C/c1cc2ccc3ccccc3c2[nH]1 | > 200 µM | 1.02 µM |  |
| O=C1NC(=O)C(=Cc2ccc(F)cc2)C(=O)N1 | > 112 µM | > 112 µM |  |
| COc1cc(C2c3c(oc4ccccc4c3=O)Oc3oc4ccccc4c(=O)c32)cc(OC)c1O | > 5.75 µM | > 5.75 µM |  |
| CCOC(=O)C1=C(C)N(Cc2ccccc2)C(C)=C(C(=O)OCC)C1c1ccccc1O | > 16.6 µM | > 16.6 µM |  |
| CC(=O)OC1=c2ccccc2=C(O)C2C1C=NN2C(C)=O (centres undefined) | > 200 µM | 87.1 µM |  |
| Clc1cc2nn(C3CCCCO3)nc2cc1Cl (centres undefined) | > 200 µM | > 200 µM |  |
| OC1C=CC2C(CC1)C1(c3ccccc3)OC2(c2ccccc2)c2ccccc21 (centres undefined) |  |  | inactive |
